Reference: EP0652004B1, “Methods for treating resistant neoplasms” (ELI LILLY AND COMPANY, priority 1993, dated 1995)
≈ marks a conversion by molar mass, not a printed value. Like-named read-outs stand apart in the source and are kept apart here.

Columns and labels:
[1] = test system: HL60/ADR; experiment: reversal of drug resistance to Adriamycin, in vitro cytotoxicity assay (3H-leucine incorporation); assay type: cell-based, human; settings: change in IC50 of Adriamycin; test compound at maximum noncytotoxic concentration (Conc. µM: 12, 6, 3, 4)
Text: (§1) The cells used to analyze the reversal of drug resistance are the human leukemia cell lines HL60/s, HL60/Vinc, and HL60/ADR. HL60/s cells are not selected for drug resistance and are therefore sensitive to drug treatment (McGrath, et al., "Mechanisms of Multidrug Resistance in HL60 Cells. Analysis of Resistance Associated Membrane Proteins and Levels of MDR Gene Expression, Biochemical Pharmacology, 38: 3611-3619, 1989.). HL60/Vinc tumor cells are selected for resistance to vincristine and express a high level of the multidrug resistance-related protein, P-glycoProtein. Id. HL60/ADR cells are selected for resistance to Adriamycin but contain no detectable levels of P-glycoProtein. Id.
(§2) The in vitro cytotoxicity assays are performed by suspending the target cells into Minimum Essential Eagle's Medium (MEM) containing 25% of the normal leucine concentration and 10% dialyzed fetal calf serum. 2x10^4 cells are seeded into each well of 96 well microtiter plates and are incubated overnight in 5% CO2 at 37°C. The agents to be tested for reversal activity are serially diluted (100 µM, 50 µM, ..., 0.2 µM) in media and added to the cells. 48 hours after adding the reversal agents to the target cells, 4 µCi of ^3H-leucine are added to each well and are incubated for an additional 16 hours at 37°C. The cells are harvested and the amount of ^3H-leucine incorporation is determined. The concentration of reversal agent required for 50% inhibition of ^3H-leucine incorporation (IC50) is calculated. Subsequent studies using reversal agents in the presence of cytotoxic drug (i.e., Adriamycin) utilize maximal concentrations of reversal agents that are not cytotoxic by themselves. The reversal of drug resistance by the various test compounds is accomplished by adding the maximum noncytotoxic concentration of the test compounds to log dilutions of Adriamycin (10, 1, 0.1, ... 0.001 µg/ml) and calculating the change in IC50 observed for Adriamycin against the HL60/s, HL60/Vinc, and HL60/ADR cell lines in the above described in vitro cytotoxicity assay.

[2] = test system: HL60/S cells; experiment: cytotoxicity of oncolytic agents against HL60/S cells; assay type: cell-based; settings: Homo sapiens, HL-60; HL60/S cells (drug sensitive, no P-glycoProtein)
Description: as §2

[3] = test system: HL60/Adr cells; experiment: cytotoxicity of oncolytic agents against HL60/Adr cells; assay type: cell-based; settings: Homo sapiens
Description: as §2

[4] = test system: HL60/VINC; experiment: reversal of drug resistance to Adriamycin, in vitro cytotoxicity assay (3H-leucine incorporation); assay type: cell-based, human; settings: change in IC50 of Adriamycin; test compound at maximum noncytotoxic concentration (Conc. µM column: 12, 4)
Text: as §1, §2

SMILES	Reversal Factor HL60/ADR [1]	IC50 [2]	further results
Cl.O=C(c1ccc(OCCN2CCCCC2)cc1)c1c(-c2ccc(O)cc2)sc2cc(O)ccc12 [Raloxifene HCL, raloxifene]	7.1		
C[C@]12CC[C@@H]3c4ccc(O)cc4CC[C@H]3[C@@H]1CC[C@@H]2O [17∝ Estradiol]	1		
COc1cc([C@@H]2c3cc4c(cc3[C@@H](O[C@@H]3O[C@@H]5CO[C@@H](C)O[C@H]5[C@H](O)[C@H]3O)[C@H]3COC(=O)[C@H]23)OCO4)cc(OC)c1O [Etoposide]		0.39 µg/mL (≈ 0.663 µM)	IC50 ([3]; HL60/Adr cells (resistant to doxorubicin, express P190), read-out: IC50): > 10 µg/mL
COc1cccc2c1C(=O)c1c(O)c3c(c(O)c1C2=O)C[C@@](O)(C(=O)CO)C[C@@H]3O[C@H]1C[C@H](N)[C@H](O)[C@H](C)O1 [Adriamycin, Doxorubicin]		0.011 µg/mL (≈ 0.0202 µM)	IC50 ([3]; HL60/ADR): 2.2 µg/mL (≈ 4.05 µM)
CC/C(=C(\c1ccccc1)c1ccc(OCCN(C)C)cc1)c1ccccc1 [Tamoxifen]	1.4		Reversal Factor HL60/VINC [4]: 4.6
